Reference: patent US20110082130A1 (LIGAND PHARMACEUTICALS, INC., priority 2006, published 2011)

Target: T1, chimeric human H3 receptor (Homo sapiens, UniProt Q9Y5N1)
T1 construct: made in house; host or cells: Sf9 insect cells (baculovirus); P2 membrane preparation
Assay: Chimeric human H3 receptor GTP binding assay (agonist-stimulated GTP-gamma35S binding, Example 7)
Assay type: biochemical
Conditions: Table II "Ki", symbol *; assay of Example 7
In short: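 Sf9 membranes co-expressing chimeric human H3 receptor and heterotrimeric G-protein, 35 μg/tube, in pH 7.4 Tris buffer with 10 μM GDP. Test compounds (10^−10–10^−6 M) competed against 1 μM histamine, […] GTP-gamma35S, 60 min at room temperature. Filter-bound radioactivity counted; IC50 converted to Ki by Cheng-Prusoff. Agonism/inverse agonism tested without histamine (EC50).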

T1 sequence (Q9Y5N1 with tags, fused parts or gaps): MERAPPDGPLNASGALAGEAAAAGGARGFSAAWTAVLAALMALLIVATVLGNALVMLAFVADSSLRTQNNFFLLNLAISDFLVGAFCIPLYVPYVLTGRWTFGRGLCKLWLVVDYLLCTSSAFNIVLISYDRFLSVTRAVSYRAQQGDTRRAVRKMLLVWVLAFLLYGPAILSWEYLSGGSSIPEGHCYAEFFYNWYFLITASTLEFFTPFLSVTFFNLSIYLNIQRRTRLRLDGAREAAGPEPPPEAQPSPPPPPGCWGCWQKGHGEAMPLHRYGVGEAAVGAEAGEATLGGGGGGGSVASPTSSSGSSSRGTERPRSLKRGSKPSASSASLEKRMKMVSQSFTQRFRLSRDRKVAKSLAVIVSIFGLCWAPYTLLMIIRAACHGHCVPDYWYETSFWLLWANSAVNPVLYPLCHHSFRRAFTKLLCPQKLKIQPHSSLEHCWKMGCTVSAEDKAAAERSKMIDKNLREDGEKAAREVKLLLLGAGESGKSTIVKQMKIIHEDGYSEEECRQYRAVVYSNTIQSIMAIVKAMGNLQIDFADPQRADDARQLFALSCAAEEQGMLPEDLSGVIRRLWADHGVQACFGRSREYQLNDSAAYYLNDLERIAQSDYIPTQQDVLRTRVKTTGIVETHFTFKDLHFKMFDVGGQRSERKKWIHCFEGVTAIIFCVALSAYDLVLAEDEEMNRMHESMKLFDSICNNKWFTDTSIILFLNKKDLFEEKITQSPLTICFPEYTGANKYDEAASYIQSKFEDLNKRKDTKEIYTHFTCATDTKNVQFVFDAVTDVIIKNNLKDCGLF

Ki, < 1 µM:
CC1CCCC1N1CCN(C(=O)CN2CCc3cc(-c4cncnc4)ccc3C2)C[C@@H]1C (stereo partly drawn) [Compound 614, 2-{2-[(3S)-3-methyl-4-(2-methylcyclopentyl)piperazin-1-yl]-2-oxoethyl}-6-pyrimidin-5-yl-1,2,3,4-tetrahydroisoquinoline]

Same assay, conditions: Table II; "*" = Ki in assay of Example 7 less than 1 micromolar

Ki, < 1 µM:
N#Cc1cncc(-n2cc3c(n2)CCN(CC(=O)N2CCN(C4CCC4)CC2)C3)n1 [Compound 271, 6-{5-[2-(4-cyclobutylpiperazin-1-yl)-2-oxoethyl]-4,5,6,7-tetrahydro-2H-pyrazolo[4,3-c]pyridin-2-yl}pyrazine-2-carbonitrile]
COc1ccc(-n2cc3c(n2)CCN(CC(=O)N2CCN(C4CCC4)CC2)C3)nn1 [Compound 199, 5-[2-(4-cyclobutylpiperazin-1-yl)-2-oxoethyl]-2-(6-methoxypyridazin-3-yl)-4,5,6,7-tetrahydro-2H-pyrazolo[4,3-c]pyridine]
O=C(CN1CCc2cc(-n3cc4ccccc4n3)ccc2C1)N1CCN(C2CCC2)CC1 [Compound 229, 2-[2-(4-cyclobutylpiperazin-1-yl)-2-oxoethyl]-6-(2H-indazol-2-yl)-1,2,3,4-tetrahydroisoquinoline]
CC1CCC[C@H]2CN(C(=O)CN3CCc4cc(-c5cncnc5)ccc4C3)CCN12 (stereo in doubt) [Compound 149, 6-methyl-2-[(6-pyrimidin-5-yl-3,4-dihydroisoquinolin-2(1H)-yl)acetyl]octahydro-2H-pyrido[1,2-a]pyrazine]
CC1CN(c2ncc3c(n2)CCN(CC(=O)N2CCN(C4CCC4)CC2)C3)CC(C)O1 (stereo not drawn) [Compound 187, 6-[2-(4-cyclobutylpiperazin-1-yl)-2-oxoethyl]-2-(2,6-dimethylmorpholin-4-yl)-5,6,7,8-tetrahydropyrido[4,3-d]pyrimidine]
O=C(CN1CCc2nn(-c3ccc(Cl)nn3)cc2C1)N1CCN(C2CCC2)CC1 [Compound 201, 2-(6-chloropyridazin-3-yl)-5-[2-(4-cyclobutylpiperazin-1-yl)-2-oxoethyl]-4,5,6,7-tetrahydro-2H-pyrazolo[4,3-c]pyridine]
Cn1cc(-c2ccc3c(c2)CCN(CC(=O)N2CCN(C4CCC4)CC2)C3)cn1 [Compound 127, 2-[2-(4-cyclobutylpiperazin-1-yl)-2-oxoethyl]-6-(1-methyl-1H-pyrazol-4-yl)1,2,3,4-tetrahydroisoquinoline]

Same assay, conditions: assay of Example 7; "*" in Ki of Table II

Ki, < 1 µM:
O=C(CN1CCc2nc(-c3cc(Cl)cc(Cl)c3)sc2C1)N1CCN(C2CCC2)CC1 [Compound 350, 5-[2-(4-cyclobutylpiperazin-1-yl)-2-oxoethyl]-2-(3,5-dichlorophenyl)-4,5,6,7-tetrahydro[1,3]thiazolo [5,4-c]pyridine]
O=C(CN1CCc2nc(-c3cccc(OC(F)(F)F)c3)sc2C1)N1CCN(C2CCC2)CC1 [Compound 319, 5-[2-(4-cyclobutylpiperazin-1-yl)-2-oxoethyl]-2-[3-(trifluoromethoxy)phenyl]-4,5,6,7-tetrahydro[1,3]thiazolo [5,4-c]pyridine]
Cc1ccc(-n2ncc3c2CN(CC(=O)N2CCN(C4CCC4)CC2)CC3)nn1 [Compound 284, 6-[2-(4-cyclobutylpiperazin-1-yl)-2-oxoethyl]-1-(6-methylpyridazin-3-yl)-4,5,6,7-tetrahydro-1H-pyrazolo[3,4-c]pyridine]
Cn1cc2c(n1)CCN(CC(=O)N1CCN(C3CCC3)CC1)C2 [Compound 293, 5-[2-(4-cyclobutylpiperazin-1-yl)-2-oxoethyl]-2-methyl-4,5,6,7-tetrahydro-2H-pyrazolo[4,3-c]pyridine]
